Test system: 843782-103-R-J1-PDC complex spheroid viability
Assay: Anticancer human tumor 843782-103-R-J1-PDC patient-derived lung adenocarcinoma cell line growth inhibition [RAS]
Details: for IC50: curve of first compound; for viability, T/C: stronger effect = lower value
Summary of the method: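 Agents were tested in combination matrices in half-log decrements from a top concentration at or near clinical Cmax (10 microM if undetermined). Targets were multi-cell spheroids of tumour lines plus HUVEC and MSC stromal cells.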

[1] = second compound 0.000949 µM, first compound 0.0316 µM
[2] = second compound 0.000949 µM, first compound 0.1 µM
[3] = second compound 0.003 µM, first compound 0.0316 µM
[4] = second compound 0.003 µM, first compound 0.1 µM
[5] = second compound 0.00949 µM, first compound 0.0316 µM
[6] = second compound 0.00949 µM, first compound 0.1 µM
[7] = second compound 0.03 µM, first compound 0.0316 µM
[8] = second compound 0.03 µM, first compound 0.1 µM
[9] = second compound 0.0949 µM, first compound 0.0316 µM
[10] = second compound 0.0949 µM, first compound 0.1 µM
[11] = second compound 0.3 µM, first compound 0.0316 µM
[12] = second compound 0.3 µM, first compound 0.1 µM
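Note: viability read after seven days of compound exposure.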

## CC(C)NCC(C(=O)N1CCN(c2ncnc3c2C(C)CC3O)CC1)c1ccc(Cl)cc1 (centres undefined) + CCn1c(-c2cc(N3CCN(C)CC3)cnc2C(C)OC)c2c3cc(ccc31)-c1csc(n1)CC(NC(=O)C1CC1C)C(=O)N1CCCC(N1)C(=O)OCC(C)(C)C2
Second compound 0.000949 µM
  IC50: 511 nM
Second compound 0.003 µM
  IC50: 242 nM
Second compound 0.00949 µM
  IC50: < 31.6 nM
Second compound 0.03 µM
  IC50: < 31.6 nM
Second compound 0.0949 µM
  IC50: < 31.6 nM
Second compound 0.3 µM
  IC50: < 31.6 nM
[1]
  viability, T/C: 80.6%
[2]
  viability, T/C: 73.9%
Second compound 0.000949 µM, first compound 0.316 µM
  viability, T/C: 64.6%
Second compound 0.000949 µM, first compound 1 µM
  viability, T/C: 30.4%
Second compound 0.000949 µM, first compound 3.16 µM
  viability, T/C: 14.7%
Second compound 0.000949 µM, first compound 10 µM
  viability, T/C: 6.49%
[3]
  viability, T/C: 62.2%
[4]
  viability, T/C: 63.7%
Second compound 0.003 µM, first compound 0.316 µM
  viability, T/C: 44.8%
Second compound 0.003 µM, first compound 1 µM
  viability, T/C: 25.8%
Second compound 0.003 µM, first compound 3.16 µM
  viability, T/C: 10.7%
Second compound 0.003 µM, first compound 10 µM
  viability, T/C: 5.07%
[5]
  viability, T/C: 39.6%
[6]
  viability, T/C: 38%
Second compound 0.00949 µM, first compound 0.316 µM
  viability, T/C: 24.9%
Second compound 0.00949 µM, first compound 1 µM
  viability, T/C: 15%
Second compound 0.00949 µM, first compound 3.16 µM
  viability, T/C: 8.4%
Second compound 0.00949 µM, first compound 10 µM
  viability, T/C: 4.07%
[7]
  viability, T/C: 22.4%
[8]
  viability, T/C: 25%
Second compound 0.03 µM, first compound 0.316 µM
  viability, T/C: 16.6%
Second compound 0.03 µM, first compound 1 µM
  viability, T/C: 9.92%
Second compound 0.03 µM, first compound 3.16 µM
  viability, T/C: 7.32%
Second compound 0.03 µM, first compound 10 µM
  viability, T/C: 2.47%
[9]
  viability, T/C: 16.7%
[10]
  viability, T/C: 18%
Second compound 0.0949 µM, first compound 0.316 µM
  viability, T/C: 13.8%
Second compound 0.0949 µM, first compound 1 µM
  viability, T/C: 8.39%
Second compound 0.0949 µM, first compound 3.16 µM
  viability, T/C: 5.39%
Second compound 0.0949 µM, first compound 10 µM
  viability, T/C: 2.13%
[11]
  viability, T/C: 18%
[12]
  viability, T/C: 14%
Second compound 0.3 µM, first compound 0.316 µM
  viability, T/C: 12.4%
Second compound 0.3 µM, first compound 1 µM
  viability, T/C: 7.41%
Second compound 0.3 µM, first compound 3.16 µM
  viability, T/C: 3.93%
Second compound 0.3 µM, first compound 10 µM
  viability, T/C: 1.56%

## CC(C)n1nc(-c2ccc3oc(N)nc3c2)c2c(N)ncnc21 + CCn1c(-c2cc(N3CCN(C)CC3)cnc2C(C)OC)c2c3cc(ccc31)-c1csc(n1)CC(NC(=O)C1CC1C)C(=O)N1CCCC(N1)C(=O)OCC(C)(C)C2
Second compound 0.000949 µM
  IC50: 5.34 nM
Second compound 0.003 µM
  IC50: 3.42 nM
Second compound 0.00949 µM
  IC50: < 0.316 nM
Second compound 0.03 µM
  IC50: < 0.316 nM
Second compound 0.0949 µM
  IC50: < 0.316 nM
Second compound 0.3 µM
  IC50: < 0.316 nM
Second compound 0.000949 µM, first compound 0.000316 µM
  viability, T/C: 73%
Second compound 0.000949 µM, first compound 0.001 µM
  viability, T/C: 70.4%
Second compound 0.000949 µM, first compound 0.00316 µM
  viability, T/C: 58.7%
Second compound 0.000949 µM, first compound 0.01 µM
  viability, T/C: 38.6%
[1]
  viability, T/C: 24.8%
[2]
  viability, T/C: 13.5%
Second compound 0.003 µM, first compound 0.000316 µM
  viability, T/C: 49.6%
Second compound 0.003 µM, first compound 0.001 µM
  viability, T/C: 57.5%
Second compound 0.003 µM, first compound 0.00316 µM
  viability, T/C: 52.5%
Second compound 0.003 µM, first compound 0.01 µM
  viability, T/C: 27.7%
[3]
  viability, T/C: 19.7%
[4]
  viability, T/C: 11%
Second compound 0.00949 µM, first compound 0.000316 µM
  viability, T/C: 36.5%
Second compound 0.00949 µM, first compound 0.001 µM
  viability, T/C: 36.6%
Second compound 0.00949 µM, first compound 0.00316 µM
  viability, T/C: 28.2%
Second compound 0.00949 µM, first compound 0.01 µM
  viability, T/C: 19.7%
[5]
  viability, T/C: 11.6%
[6]
  viability, T/C: 7.59%
Second compound 0.03 µM, first compound 0.000316 µM
  viability, T/C: 22.3%
Second compound 0.03 µM, first compound 0.001 µM
  viability, T/C: 19.4%
Second compound 0.03 µM, first compound 0.00316 µM
  viability, T/C: 13.2%
Second compound 0.03 µM, first compound 0.01 µM
  viability, T/C: 12.6%
[7]
  viability, T/C: 7.81%
[8]
  viability, T/C: 4.67%
Second compound 0.0949 µM, first compound 0.000316 µM
  viability, T/C: 15.6%
Second compound 0.0949 µM, first compound 0.001 µM
  viability, T/C: 13.8%
Second compound 0.0949 µM, first compound 0.00316 µM
  viability, T/C: 12.8%
Second compound 0.0949 µM, first compound 0.01 µM
  viability, T/C: 10.3%
[9]
  viability, T/C: 7.44%
[10]
  viability, T/C: 4.77%
Second compound 0.3 µM, first compound 0.000316 µM
  viability, T/C: 13.9%
Second compound 0.3 µM, first compound 0.001 µM
  viability, T/C: 13.4%
Second compound 0.3 µM, first compound 0.00316 µM
  viability, T/C: 10.7%
Second compound 0.3 µM, first compound 0.01 µM
  viability, T/C: 9.85%
[11]
  viability, T/C: 6.87%
[12]
  viability, T/C: 3.78%

Reference: PubChem BioAssay AID2060883 (Molecular Pharmacology Branch, DTP, NCI, 2025)
